Experimental data from ChEMBL document CHEMBL3137667, “[Drug-induced liver injury; fourteenth updated edition of the bibliographic database of liver injuries and related drugs]” (Gastroenterol Clin Biol, 2004).

Assays:
[1] = human
[2] = human; remark: listed apart in the source
[3] = human, serum, 4383 h
[4] = human; remark: listed apart in the source
[5] = human; remark: listed apart in the source
[6] = human; remark: listed apart in the source
[7] = human; remark: listed apart in the source
[8] = human; remark: listed apart in the source
[9] = human; remark: listed apart in the source
[10] = human; remark: listed apart in the source
[11] = Highest frequency of moderate liver toxicity observed during clinical trials, expressed as a percentage. [column '% BIOL' in source]; conditions: human
[12] = Highest frequency of acute liver toxicity observed during clinical trials, expressed as a percentage. [column '% AIGUE' in source]; conditions: human
[13] = human, serum
[14] = human, serum; remark: listed apart in the source
[15] = human; remark: listed apart in the source
[16] = Presence of at least one case with successful reintroduction. [column 'REINT' in source]; conditions: human
[17] = Comments (NB not yet translated). [column 'COMMENTAIRES' in source]; conditions: human
[18] = Times to onset, minimal and maximal, observed in the indexed observations. [column 'DELAI' in source]; conditions: human
[19] = Proposed mechanism(s) of liver damage. [column 'MEC' in source]; conditions: human
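Throughout, for Hepatotoxicity (association with vascular disease): count of indexed literature references reporting vascular liver injury in humans, e.g. peliosis hepatitis, hepatic veno-occlusive disease or Budd-Chiari syndrome.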
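Throughout, for Hepatotoxicity (benign tumour): value is a count of indexed literature references citing a benign tumour confirmed by histopathology.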
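Throughout, for Hepatotoxicity (choleostasis): human cholestatic liver injury, shown by histopathology or by peak ALT or AST elevation over alkaline phosphatase ratio below 2, value counts indexed literature reports.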
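Throughout, for Hepatotoxicity (chronic liver disease): chronic liver injury confirmed by histopathology or persistently raised serum aminotransferase activity beyond 6 months, value given as the count of indexed literature references.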
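Throughout, for Hepatotoxicity (cirrhosis): value is a count of indexed literature references reporting cirrhosis confirmed by histopathology.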
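Throughout, for Hepatotoxicity (cytolytic): human cytolytic liver injury, shown by histopathology or by a ratio above 5 of peak ALT or AST elevation to alkaline phosphatase elevation, value counts indexed references.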
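Throughout, for Hepatotoxicity (granulomatous hepatitis): value is a count of indexed literature references reporting granulomatous liver disease confirmed by histopathology.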
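Throughout, for Hepatotoxicity (malignant tumour): malignant tumour confirmed by histopathology, value gives the count of indexed literature references reporting it.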
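Throughout, for Hepatotoxicity (severe hepatitis): human clinical data: severe hepatitis, meaning potentially life-threatening liver failure or clinically observed cases, the value counts how many indexed literature references report it.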
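Throughout, for Hepatotoxicity (steatosis): steatosis confirmed by histopathology, value is the count of indexed references.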

Compound	Hepatotoxicity (cytolytic) [1]	Hepatotoxicity (choleostasis) [2]	Hepatotoxicity (chronic liver disease) [3]	Hepatotoxicity (cirrhosis) [4]	Hepatotoxicity (granulomatous hepatitis) [5]	Hepatotoxicity (association with vascular disease) [6]	Hepatotoxicity (steatosis) [7]	Hepatotoxicity (malignant tumour) [8]	Hepatotoxicity (benign tumour) [9]	Hepatotoxicity (animal toxicity known) [10]	Hepatotoxicity (moderate) [11] [%]	Hepatotoxicity (acute) [12] [%]	Hepatotoxicity (moderate) [13]	Hepatotoxicity (acute) [14]	Hepatotoxicity (severe hepatitis) [15]	Hepatotoxicity (successful reintroduction) [16]	Hepatotoxicity (comment) [17]	Hepatotoxicity (time to onset) [18]	Hepatotoxicity (mechanism) [19]
CC1(C)[C@H](C(=O)O)N2C(=O)C[C@H]2S1(=O)=O.CCN1CCN(C(=O)N[C@@H](C(=O)N[C@@H]2C(=O)N3C(C(=O)O)=C(CSc4nnnn4C)CS[C@H]23)c2ccc(O)cc2)C(=O)C1=O	0	0	0	0	0	0	0	0	0	yes									
Cc1cn([C@H]2CC[C@@H](CO)O2)c(=O)[nH]c1=O	0	0	0	0	0	0	0	0	0	yes	30	0	1	0	0				
CN(C)[C@@H]1C(O)=C(C(N)=O)C(=O)[C@@]2(O)C(O)=C3C(=O)c4c(O)ccc(Cl)c4[C@@](C)(O)[C@H]3C[C@@H]12 [CHLORTETRACYCLINE]	1	1	0	0	0	0	3	0	0	yes	0	0	0	4	0				
CC(C)/N=c1\cc2n(-c3ccc(Cl)cc3)c3ccccc3nc-2cc1Nc1ccc(Cl)cc1 [CLOFAZIMINE]	0	1	0	0	0	0	0	0	0	yes	16	5.6	2	1	0				
O=C(O)c1cccs1 [THIOPHENE CARBOXYLIC ACID]	3	0	0	0	0	0	0	0	0		0	0	0	3	0	yes	AC_ANTI-ML	3 days - 3 weeks	Allergic
CCOC(=O)NNc1nncc2ccccc12 [TODRALAZINE]	3	0	0	0	0	0	0	0	0		0	0	0	3	2	yes	AC_ANTI-N/-MF	11 days - 2 years	Allergic
Cc1ccc(-c2nc3ccc(C)cn3c2CC(=O)N(C)C)cc1 [ZOLPIDEM]	2	0	0	0	0	0	0	0	0		0.4	0	3	2	0	yes	ENCEPHALOPATHIE	1 day - 3 days	Dose-dependant
INTERFERON ALFA-2A	7	2	0	1	0	0	0	0	0		92	35.7	50	10	2	yes	AC_ANTI-ML/-N AGGRAVATION_HAI/HVB I/PARACETAMOL CBP	1 week - 9 months	Allergic, Dose-dependant
INTERFERON ALFA-2B	8	2	0	0	3	0	0	0	0		87.5	0	52	13	7	yes	AGGRAVATION_CBP/HEPATITE_AUTOIMMUNE/HVB/HVC_CHRONIQUE CHOLANGITE	1 week - 1 year	Dose-dependant
INTERFERON BETA	5	0	0	0	0	0	0	0	0		100	31.2	33	10	1	yes	AC_ANTI-N/-ML	3 days - 2 years	Allergic, Dose-dependant
